Reference: ChEMBL document CHEMBL1147193, “New 5-substituted thiazolo[3,2-b][1,2,4]triazol-6-ones: synthesis and anticancer evaluation” (2007)

Experiments:
Format in all cases: functional
[1] = system: SF-268; assay: Anticancer activity against human SF268 cells assessed as growth of cells at 100 uM relative to untreated cells
[2] = system: MCF7; assay: Anticancer activity against human MCF7 cells assessed as growth of cells at 100 uM relative to untreated cells
[3] = system: NCI-H460; assay: Anticancer activity against human NCI-H460 cells assessed as growth of cells at 100 uM relative to untreated cells

Compound `O=c1/c(=C/C=C\c2ccccc2)sc2ncnn12` has an Activity [1] of 128%, an Activity [2] of 138% and an Activity [3] of 95%.
